Values quoted from earlier work in patent publication US9764130B2, “Transdermal systems for the delivery of therapeutic agents including granisetron using iontophoresis” (Teva Pharmaceuticals International GmbH, priority 2005, dated 2017).

Conditions: transdermal iontophoresis from anode pad; hairless rat animal model; AAPS 2003/2004 abstracts

## CN1C2CCCC1CC(NC(=O)c1nn(C)c3ccccc13)C2 (stereo not shown) [granisetron]
  time within which a therapeutic dosage is achieved with iontophoresis: two
